Measurements reported in patent US9695155B2, “Herbicidal substituted pyrimidinyloxy benzene compounds” (E. I. DU PONT DE NEMOURS AND COMPANY, priority 2013, dated 2017).

How the values were obtained:
wild oat = test: Test C postemergence; type: in vivo, Avena fatua; conditions: for Plant response rating, Oat, Wild: scale 0 to 100 (0 no effect, 100 complete control)
Outline: (§1)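 Visual ratings on a 0–100 scale (100 = complete control) were made versus untreated controls after 13–15 greenhouse days. Chemicals in a surfactant-containing non-phytotoxic solvent were applied either preemergence to seeds in loam–sand soil or postemergence to 1- to 4-leaf plants 2–18 cm tall.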

velvetleaf = test: Test C postemergence; type: in vivo, Abutilon theophrasti; conditions: for Plant response rating, Velvetleaf: scale 0 to 100 (0 no effect, 100 complete control)
Outline: as §1

barnyardgrass [1] = test: Test C postemergence; type: in vivo, Echinochloa crus-galli
Outline: as §1

yellow nutsedge = test: Test C postemergence; type: in vivo, Cyperus esculentus; conditions: for Plant response rating, Nutsedge, Yellow: scale 0 to 100 (0 no effect, 100 complete control)
Outline: as §1

sedge, umbrella = test: Test B flooded paddy test; type: in vivo, Cyperus difformis; conditions: Flood, 250 g ai/ha; 0 to 100 scale where 0 is no effect and 100 is complete control
Outline: (§2)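 Compound added straight to paddy water, with pots kept flooded 3 cm above soil, on plants grown to the 2-leaf stage. Visual scoring 0-100 (100 = complete control) against untreated controls after 13 to 15 greenhouse days.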

johnsongrass = test: Test C postemergence; type: in vivo, Sorghum halepense
Outline: as §1

waterhemp = test: Test C postemergence; type: in vivo, Amaranthus rudis; conditions: for Plant response rating, Waterhemp: scale 0 to 100 (0 no effect, 100 complete control)
Outline: as §1

giant foxtail = test: Test C preemergence; type: in vivo, Setaria faberii; conditions: for Foxtail, Giant plant response rating: preemergence; for Plant response rating, Foxtail, Giant: Preemergence, 31 g ai/ha, scale 0 to 100, 0 no effect, 100 complete control
Outline: as §1

corn = test: Test C preemergence; type: in vivo, Zea mays; conditions: for Corn plant response rating: preemergence; for Plant response rating, Corn: Preemergence, 31 g ai/ha, scale 0 to 100, 0 no effect, 100 complete control
Outline: as §1

Italian ryegrass = test: Test C postemergence; type: in vivo, Lolium multiflorum; conditions: for Plant response rating, Ryegrass, Italian: scale 0 to 100 (0 no effect, 100 complete control)
Outline: as §1

barnyardgrass [2] = test: Test B flooded paddy test; type: in vivo, Echinochloa crus-galli; conditions: Flood, 250 g ai/ha; 0 to 100 scale where 0 is no effect and 100 is complete control
Outline: as §2

barnyardgrass [3] = test: Test A postemergence; type: in vivo, Echinochloa crus-galli; conditions: 0 to 100 scale where 0 is no effect and 100 is complete control
Outline: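 Visual injury scored 0–100 (100 = complete control) against untreated controls about 10 days after treatment in a greenhouse. Test chemicals, formulated with surfactant in non-phytotoxic solvent, were sprayed on soil preemergence or on 2-10 cm, one- to two-leaf plants postemergence.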

pigweed = test: Test C postemergence; type: in vivo, Amaranthus retroflexus; conditions: for Plant response rating, Pigweed: scale 0 to 100 (0 no effect, 100 complete control)
Outline: as §1

[4] = Postemergence, 31 g ai/ha, 13 to 15 days
[5] = 16 g ai/ha, postemergence, visual rating, scale 0 to 100 (0 no effect, 100 complete control), 13 to 15 days
[6] = Postemergence, 31 g ai/ha, scale 0 to 100 (0 no effect, 100 complete control), 13 to 15 days
[7] = Postemergence, 62 g ai/ha, scale 0 to 100 (0 no effect, 100 complete control)
[8] = 16 g ai/ha, scale 0 to 100 (0 no effect, 100 complete control)
[9] = 62 g ai/ha, scale 0 (no effect) to 100 (complete control)
[10] = 125 g ai/ha, scale 0 (no effect) to 100 (complete control)
[11] = 16 g ai/ha, postemergence, 0 is no effect, 100 is complete control
[12] = 125 g ai/ha, postemergence, visual rating
[13] = 125 g ai/ha, postemergence, visual rating, scale 0 to 100 (0 no effect, 100 complete control)

| SMILES | Plant response rating, Oat, Wild (wild oat; Postemergence, 62 g ai/ha) | Plant response rating, Velvetleaf (velvetleaf; Postemergence, 62 g ai/ha) | Plant response rating, Barnyardgrass (barnyardgrass [1]; [6]) | Plant response rating, Barnyardgrass (barnyardgrass [1]; [7]) | Plant response rating, Nutsedge, Yellow (yellow nutsedge; Postemergence, 62 g ai/ha) | Plant response rating, Sedge, Umbrella (sedge, umbrella) | Plant response rating, Johnsongrass (johnsongrass; [7]) | Plant response rating, Waterhemp (waterhemp; Postemergence, 62 g ai/ha) | Foxtail, Giant plant response rating (giant foxtail; [8]) | Foxtail, Giant plant response rating (giant foxtail; [9]) | Foxtail, Giant plant response rating (giant foxtail; [10]) | Plant response rating, Foxtail, Giant (giant foxtail) | Corn plant response rating (corn; [8]) | Corn plant response rating (corn; [9]) | Corn plant response rating (corn; [10]) | Plant response rating, Corn (corn) | Plant response rating, Ryegrass, Italian (Italian ryegrass; Postemergence, 62 g ai/ha) | Plant response rating, Barnyardgrass (barnyardgrass [2]) | Plant response rating, Barnyardgrass (barnyardgrass [3]; 500 g ai/ha) | Plant response rating, Pigweed (pigweed; Postemergence, 62 g ai/ha) | further results |
| --- | --- | --- | --- | --- | --- | --- | --- | --- | --- | --- | --- | --- | --- | --- | --- | --- | --- | --- | --- | --- | --- |
| CCOc1cnn(-c2c(C#N)cccc2Oc2ncc(F)cn2)c1 [Compound 89] | 5 | 25 | 5 | 5 | 20 | 85 | 5 | 30 | 5 | 100 | 100 | 35 | 0 | 0 | 5 | 0 | 5 | 10 | 90 | 35 | Plant response rating (0 to 100), Oat, Wild (wild oat; 125 g ai/ha, postemergence): 15; Plant response rating, Oat, Wild (wild oat; [4]): 5; Plant response rating (0 to 100), Velvetleaf (velvetleaf; 125 g ai/ha, postemergence): 40; Plant response rating, Velvetleaf (velvetleaf; [4]): 15; Barnyardgrass plant response rating (barnyardgrass [1]; [5]): 0; Plant response rating (0 to 100), Barnyardgrass (barnyardgrass [1]; 125 g ai/ha, postemergence): 5; Plant response rating (0 to 100), Nutsedge, Yellow (yellow nutsedge; 125 g ai/ha, postemergence): 5; Plant response rating, Nutsedge, Yellow (yellow nutsedge; [4]): 5; Johnsongrass plant response rating (johnsongrass; [5]): 0; Plant response rating (0 to 100), Johnsongrass (johnsongrass; 125 g ai/ha, postemergence): 5; Plant response rating, Johnsongrass (johnsongrass; [6]): 5; Plant response rating (0 to 100), Waterhemp (waterhemp; 125 g ai/ha, postemergence): 60; Plant response rating, Waterhemp (waterhemp; [4]): 40; Plant response rating (0 to 100), Ryegrass, Italian (Italian ryegrass; 125 g ai/ha, postemergence): 5; Plant response rating, Ryegrass, Italian (Italian ryegrass; [4]): 0; Plant response rating, Barnyardgrass (barnyardgrass [3]; 125 g ai/ha): 40; Plant response rating (0 to 100), Pigweed (pigweed; 125 g ai/ha, postemergence): 40; Plant response rating, Pigweed (pigweed; [4]): 35 |
| Clc1cnc(Oc2cccc(Br)c2-n2cc(Br)nn2)nc1 [Compound 129] | 15 | 40 | 5 | 5 | 5 | 65 | 5 | 65 | 0 | 100 | 100 | 80 | 0 | 5 | 30 | 5 | 20 | 0 | 90 | 80 | Plant response rating (0 to 100), Oat, Wild (wild oat; [11]): 0; Plant response rating, Oat, Wild (wild oat; [12]): 10; Plant response rating (0 to 100), Velvetleaf (velvetleaf; [11]): 15; Plant response rating, Velvetleaf (velvetleaf; [12]): 40; Plant response rating (0 to 100), Barnyardgrass (barnyardgrass [1]; [11]): 5; Plant response rating, Barnyardgrass (barnyardgrass [1]; [13]): 5; Plant response rating (0 to 100), Nutsedge, Yellow (yellow nutsedge; [11]): 0; Plant response rating, Nutsedge, Yellow (yellow nutsedge; [12]): 10; Plant response rating (0 to 100), Johnsongrass (johnsongrass; [11]): 5; Plant response rating, Johnsongrass (johnsongrass; [13]): 5; Plant response rating (0 to 100), Waterhemp (waterhemp; [11]): 65; Plant response rating, Waterhemp (waterhemp; [12]): 85; Plant response rating (0 to 100), Ryegrass, Italian (Italian ryegrass; [11]): 0; Plant response rating, Ryegrass, Italian (Italian ryegrass; [12]): 5; Barnyardgrass plant response rating (barnyardgrass [3]; 125 g ai/ha): 90; Plant response rating (0 to 100), Pigweed (pigweed; [11]): 70; Plant response rating, Pigweed (pigweed; [12]): 90 |
